Assay results reported in ChEMBL document CHEMBL4823282, “Novel Broad-Spectrum Antimicrobial Peptide Derived from Anoplin and Its Activity on Bacterial Pneumonia in Mice” (J Med Chem, 2021).
In brackets after ≈: the same amount, converted by molar mass. Where a SMILES comes first, the peptide text is derived from it.

Experiments:
Staphylococcus aureus = experiment: Antibacterial activity against Staphylococcus aureus ATCC 25923 incubated for 18 hrs by CLSI based broth dilution method; assay type: functional
Bacillus subtilis = experiment: Antibacterial activity against Bacillus subtilis ATCC 23857 incubated for 18 hrs by CLSI based broth dilution method; assay type: functional
Enterococcus faecalis = experiment: Antibacterial activity against Enterococcus faecalis ATCC 29212 incubated for 18 hrs by CLSI based broth dilution method; assay type: functional
[1] = system: Staphylococcus epidermidis; experiment: Antibacterial activity against Staphylococcus epidermidis ATCC 12228 incubated for 18 hrs by CLSI based broth dilution method; assay type: functional
Escherichia coli = experiment: Antibacterial activity against Escherichia coli ATCC 25922 incubated for 18 hrs by CLSI based broth dilution method; assay type: functional
Pseudomonas aeruginosa [2] = experiment: Antibacterial activity against Pseudomonas aeruginosa ATCC 27853 incubated for 18 hrs by CLSI based broth dilution method; assay type: functional
Klebsiella pneumoniae = experiment: Antibacterial activity against Klebsiella pneumoniae ATCC 700603 incubated for 18 hrs by CLSI based broth dilution method; assay type: functional
Acinetobacter baumannii = experiment: Antibacterial activity against Acinetobacter baumannii ATCC 19606 incubated for 18 hrs by CLSI based broth dilution method; assay type: functional; details: ATCC 19606 = CIP 70.34 = JCM 6841
Erythrocyte = experiment: Hemolytic activity in BALB/C mouse erythrocytes incubated for 1 hr by absorbance method; assay type: ADME, cell-based
[3] = Cytotoxicity against human glomerular mesangial cells incubated for 12 hrs by MTT assay; assay type: cell-based; details: Glomerular mesangial cell
Bacteria [4] = experiment: Antibacterial activity against bacteria incubated for 18 hrs by CLSI based broth dilution method; assay type: functional
Fungi = experiment: Antibacterial activity against fungi incubated for 18 hrs by CLSI based broth dilution method; assay type: functional
[5] = Selectivity ratio of MHC10 for BALB/C mouse erythrocytes to MIC for bacteria; assay type: toxicity
[6] = Selectivity ratio of MHC10 for BALB/C mouse erythrocytes to MIC for fungi; assay type: toxicity
Bacteria [7] = experiment: Antibacterial activity against Gram-positive bacteria incubated for 18 hrs by CLSI based broth dilution method; assay type: functional
[8] = Selectivity ratio of MHC10 for BALB/C mouse erythrocytes to MIC for gram positive bacteria; assay type: toxicity
Bacteria [9] = experiment: Antibacterial activity against Gram-negative bacteria incubated for 18 hrs by CLSI based broth dilution method; assay type: functional
[10] = Selectivity ratio of MHC10 for BALB/C mouse erythrocytes to MIC for gram-negative bacteria; assay type: toxicity
Pseudomonas aeruginosa [11] = experiment: Synergistic antibacterial activity against Pseudomonas aeruginosa ATCC 27853 at 2 times MIC incubated for 18 to 24 hrs in presence of 2 times MIC of rifampicin by broth microdilution assay based checkerboard assay; assay type: functional; details: time 18-24 hrs
Pseudomonas aeruginosa [12] = experiment: Synergistic antibacterial activity against Pseudomonas aeruginosa ATCC 27853 at 2 times MIC incubated for 18 to 24 hrs in presence of 2 times MIC of polymyxin B by broth microdilution assay based checkerboard assay; assay type: functional; details: time 18-24 hrs

SMILES | MIC (Staphylococcus aureus) [µM] | MIC (Bacillus subtilis) [µM] | MIC (Enterococcus faecalis) [µM] | MIC [1] [µM] | MIC (Escherichia coli) [µM] | MIC (Pseudomonas aeruginosa [2]) [µM] | MIC (Klebsiella pneumoniae) [µM] | MIC (Acinetobacter baumannii) [µM] | MHC10 (Erythrocyte) | IC50 [3] [µM] | MIC (Bacteria [4]) [µM] | MIC (Fungi) [µM] | selectivity ratio [5] | selectivity ratio [6] | MIC (Bacteria [7]) [µM] | selectivity ratio at 18 h [8] | MIC (Bacteria [9]) [µM] | selectivity ratio [10] | FIC (Pseudomonas aeruginosa [11]) | FIC (Pseudomonas aeruginosa [12])
CC(C)C[C@H](NC(=O)[C@H](CC(C)C)NC(=O)[C@@H](NC(=O)[C@H](CCCCN)NC(=O)[C@H](Cc1c[nH]c2ccccc12)NC(=O)[C@H](CCCNC(=N)N)NC(=O)[C@H](CCCCN)NC(=O)[C@H](CC(C)C)NC(=O)[C@H](CC(C)C)NC(=O)CN)[C@@H](C)O)C(N)=O (H-GLLKRWKTLL-NH2) | 128 (≈ 157 µg/mL) | 128 (≈ 157 µg/mL) | 256 (≈ 314 µg/mL) | 16 (≈ 19.6 µg/mL) | 64 (≈ 78.5 µg/mL) | 64 (≈ 78.5 µg/mL) | 64 (≈ 78.5 µg/mL) | 256 (≈ 314 µg/mL) | >= 512 uM | ≥ 512 | 64 (≈ 78.5 µg/mL) | 64 (≈ 78.5 µg/mL) | 8 | 8 | 90.5 (≈ 111 µg/mL) | 5.66 | 45.3 (≈ 55.6 µg/mL) | 11.3 | 0.5625 | 0.3125
CC[C@H](C)[C@H](NC(=O)[C@H](CCCNC(=N)N)NC(=O)[C@H](CCCCN)NC(=O)[C@H](Cc1ccccc1)NC(=O)[C@H](Cc1c[nH]c2ccccc12)NC(=O)CN)C(=O)N[C@@H](CCCCN)C(=O)N[C@H](C(=O)N[C@@H](Cc1ccccc1)C(=O)N[C@@H](Cc1c[nH]c2ccccc12)C(N)=O)[C@@H](C)O (H-GWFKRIKTFW-NH2) | 16 (≈ 21.9 µg/mL) | 4 (≈ 5.47 µg/mL) | 64 (≈ 87.5 µg/mL) | 4 (≈ 5.47 µg/mL) | 16 (≈ 21.9 µg/mL) | 16 (≈ 21.9 µg/mL) | 32 (≈ 43.8 µg/mL) | 64 (≈ 87.5 µg/mL) | 384 µM | 98.3 | 16 (≈ 21.9 µg/mL) | 16 (≈ 21.9 µg/mL) | 24 | 24 | 11.3 (≈ 15.5 µg/mL) | 34 |  | 17 | 0.3125 | 0.25
N=C(N)NCCC[C@H](NC(=O)[C@H](CCCCN)NC(=O)[C@H](Cc1c[nH]c2ccccc12)NC(=O)[C@H](Cc1c[nH]c2ccccc12)NC(=O)[C@@H](N)CCCCN)C(=O)N[C@@H](Cc1c[nH]c2ccccc12)C(=O)N[C@@H](CCCCN)C(=O)N[C@@H](CCCCN)C(=O)N[C@@H](Cc1c[nH]c2ccccc12)C(=O)N[C@@H](Cc1c[nH]c2ccccc12)C(N)=O (H-KWWKRWKKWW-NH2) | 8 (≈ 12.9 µg/mL) | 4 (≈ 6.47 µg/mL) | 16 (≈ 25.9 µg/mL) | 8 (≈ 12.9 µg/mL) | 16 (≈ 25.9 µg/mL) | 16 (≈ 25.9 µg/mL) | 16 (≈ 25.9 µg/mL) | 8 (≈ 12.9 µg/mL) | 77.65 µM | 19.8 | 9.51 (≈ 15.4 µg/mL) | 9.51 (≈ 15.4 µg/mL) | 8.16 | 8.16 | 8 (≈ 12.9 µg/mL) | 9.71 | 11.3 (≈ 18.3 µg/mL) | 6.87 | 0.3125 | 0.25
CC[C@H](C)[C@H](NC(=O)[C@H](CCCNC(=N)N)NC(=O)[C@H](CCCNC(=N)N)NC(=O)[C@H](Cc1ccccc1)NC(=O)[C@H](Cc1ccccc1)NC(=O)CN)C(=O)N[C@@H](CCCCN)C(=O)N[C@H](C(=O)N[C@@H](Cc1ccccc1)C(=O)N[C@@H](Cc1ccccc1)C(N)=O)[C@@H](C)O (H-GFFRRIKTFF-NH2) | 16 (≈ 21.1 µg/mL) | 16 (≈ 21.1 µg/mL) | 64 (≈ 84.3 µg/mL) | 64 (≈ 84.3 µg/mL) | 32 (≈ 42.2 µg/mL) | 32 (≈ 42.2 µg/mL) | 32 (≈ 42.2 µg/mL) | 64 (≈ 84.3 µg/mL) | >= 512 uM | 91.9 | 29.3 (≈ 38.7 µg/mL) | 29.3 (≈ 38.7 µg/mL) | 17.4 | 17.4 | 32 (≈ 42.2 µg/mL) | 16 |  | 19 | 0.3125 | 0.5
CC[C@H](C)[C@H](NC(=O)[C@H](CCCNC(=N)N)NC(=O)[C@H](CCCNC(=N)N)NC(=O)[C@H](Cc1ccccc1)NC(=O)[C@H](Cc1ccccc1)NC(=O)CN)C(=O)N[C@@H](CCCNC(=N)N)C(=O)N[C@H](C(=O)N[C@@H](Cc1ccccc1)C(=O)N[C@@H](Cc1ccccc1)C(N)=O)[C@@H](C)O (H-GFFRRIRTFF-NH2) | 8 (≈ 10.8 µg/mL) | 8 (≈ 10.8 µg/mL) | 32 (≈ 43.1 µg/mL) | 32 (≈ 43.1 µg/mL) | 32 (≈ 43.1 µg/mL) | 32 (≈ 43.1 µg/mL) | 32 (≈ 43.1 µg/mL) | 32 (≈ 43.1 µg/mL) | >= 512 uM | 52.6 | 17.4 (≈ 23.5 µg/mL) | 17.4 (≈ 23.5 µg/mL) | 29.3 | 29.3 | 16 (≈ 21.5 µg/mL) | 32 |  | 26.9 | 0.5625 | 0.5625
